Experiment: Inhibition of IL-17 in human PBMC

IC50: 1300 nM
Compound: COc1cc(OC)c2c(=O)[nH]c(-c3cc(C)c(OCCN4CCCC4)c(C)c3)nc2c1

Source: BindingDB's records for PubMed 35324195 (Sichuan University, 2022)
